Like-named read-outs stand apart in the source and are kept apart here.
Tests used:
CYP3A4 = assay: Single point time dependent inhibition (SPTDI) assay; format: in vitro ADME, human
Description: Single Point Time Dependent Inhibition (SPTDI) Assay:
The objective of this study was to investigate the potential of a series of carboxamides to be time dependent inactivators of CYP3A isozymes, in vitro, using midazolam and testosterone as probe substrates for CYP 3A4/5 activity incubated with pooled human liver microsomes (HLM). Pooled HLMs (0.1-1.0 mg/ml) were pre-incubated with individual carboxamides at initial substrate concentrations of 6 or 10 μM in the presence and absence of NADPH (1.3 mM). Pre-incubations (n=2/compound) were performed for 30 min at 37° C. After pre-incubation, a 10-fold dilution of the incubate (0.02 ml) was added to the probe substrate incubate (0.18 ml) containing the respective probe P450 isozyme substrate (midazolam or testosterone for CYP3A, 1 uM), and was incubated at 37° C. The combined incubation reactions were terminated and analyzed for marker substrate activity (Ex: hydroxyl metabolite of midazolam and 6β hydroxy testesterone) as described previously (Walsky and Obach, 2004; Obach et al., 2007). Terminated incubation mixtures were filtered and analyzed by liquid chromatography (LC)-tandem mass spectrometry (MS/MS) for metabolites as described previously (Walsky and Obach, 2004). To determine kobs,app values, the decrease in natural logarithm of the activity over time was plotted for each inactivator concentration, and kobs,app values were described as the negative slopes of the lines. Inactivation kinetic parameters were determined using nonlinear regression of the data to the expression in eq. 1:
[formula] Statistical significance of kobs between solvent and test incubations was inferred using analysis performed by Yates et al. (Yates P, Eng H, Di L, Obach R S. Drug Metab Dispos 2012; 40:2289-96).
Irreversible inhibition, or time-dependent inhibition (TDI) of cytochrome P450s (CYPs) is generally characterized by an increase in enzyme inhibition with respect to time and inhibitor concentration (Grimm 2009). In cases where enzyme inhibition requires metabolic turnover, the mechanism generally involves the formation of a reactive inhibitory intermediate that may irreversibly inactivate CYPs; this mechanism could cause clinical drug-drug interactions due to inhibition of the relevant CYP responsible for metabolizing the victim drug (Grimm 2009; Rowland Yeo 2011). Hazard assessment for irreversible CYP450 inhibitory potential of CYP3A was performed for several compounds in Table 22 using the single point time dependent inhibition (SPTDI) assay, which measures the pseudo-first order rate constant of inactivation (kobs) at a single high concentration (6-10 μM) of a test compound (Zimmerlin 2011). Based on the analysis performed by Yates (2008), compounds showing a kobs of >0.008 min^−1 in this assay are considered to have a potential for TDI, and kobs<0.008 min^−1 are negative or may have a very weak potential for TDI at CYP3A4.

major CYP450 isozymes = assay: CYP450 DDI cocktail assay (reversible inhibition, all isozymes together); format: in vitro ADME, human; settings: for risk of reversible inhibition of CYP450 isozymes, in words: 3 μM; for >25% reversible inhibition of CYP activity at 3 μM (CYP): CYP450 DDI cocktail assay, isozymes inhibited in brackets
Description: Multi-Point Cocktail DDI IC50 Assay Conditions:
Standard marker activity substrates were incubated with pooled human liver microsomes (HL-MIX-102) in the presence of NADPH (1.2 mM) in 100 mM KH2PO4, pH 7.4 containing 3.3 mM MgCl2 at 37° C. The incubation volume was 0.1 mL, utilizing a 384-well plate format. The microsomal protein concentrations (0.1 mg/mL) and P450 concentration (0.035 μM) was used for each probe substrate at the following concentrations [tacrine (1A2) 2 uM; diclofenac (2C9) 5 μM; dextromethorphan (2D6) 5 μM; midazolam (3A4) 2 μM; taxol (2C8) 5 μM; S-mephenytoin (2C19) 40 μM]. Substrate concentrations were near Km values that had been previously determined and incubation times were selected based on determinations of reaction velocity linearity. Each test compound/prototypical inhibitors was tested at a concentration range of 0-30 μM in triplicate, in final vehicle solvent concentrations of 0.9% acetonitrile and 0.1% DMSO. Incubations were initiated with the addition of NADPH. At the end of the incubation period, termination solvent containing internal standard was added, the terminated incubation mixture was centrifuged to precipitate microsomal protein. Samples were directly injected on an HPLC-MS/MS system. A Biomek FX workstation was used for liquid handling and sample incubation.
Reversible CYP450 inhibitory potential for each compound was assessed using the CYP450 DDI cocktail assay, measuring the inhibition of the metabolism of a known probe substrate of each of the major CYP isozymes at 3 μM concentration.

HepG2 cells = assay: HepG2_Glu ATP viability 72 hr; format: cell-based, human; settings: for cytotoxicity in HepG2 cell line, in words: 72 hours, cellular ATP; for IC50: Homo sapiens, HepG2, glucose-supplemented media, ATP viability, 72 hour exposure, read-out: HepG2 Glu 72 hr
Description: This assay was run in a similar manner to the assay as described in Marroquin et al. Toxicological Sciences 97(2), 539-547 (2007) with a modification such that the instant assay was run for a 72 hour period as described below.
The aim of this assay was to measure cytotoxicity of a compound by measuring cell viability. […] The reagent used to quantify the ATP present was Promega Cell Titer-Glo. This reagent works by catalyzing luciferin by luciferase in the presence of Mg^2+, ATP, and molecular oxygen, thus emitting a luminescent signal, which was proportional to the amount of ATP present in the sample.
HepG2 cells grown in glucose-supplemented media were plated in 384 well plates at a density of 1000 cells/well for the 72 hour assay in a total medium volume of 25 μl/well. Plates were then incubated for 24 hours at 37° C., 95% humidity, and 5% CO2 before compound dosing.
After 24 hours to allow cells to attach to the plate, HepG2 cells were exposed to test compounds in an 11-point dose response format with a […], ranging from 300 uM to 0.029 uM for 72 hours. All compounds were tested in triplicate. Following the 72 hour exposure to test compounds, cell viability was determined by measuring the concentration of cellular ATP by adding Promega Cell Titer-Glo according to the manufacturer's directions. The plates were then read on a […] plate reader and data is analyzed using ActivityBase software.

| Structure (SMILES) | risk of time dependent inhibition (TDI) at CYP3A4, in words (CYP3A4) | SPTDI CYP3A4 kobs (CYP3A4; single dose of 6 μM) | SPTDI kobs at CYP3A4 (CYP3A4; tested at 6 μM) | risk of reversible inhibition of CYP450 isozymes, in words (major CYP450 isozymes) | >25% reversible inhibition of CYP activity at 3 μM (CYP) (major CYP450 isozymes) | cytotoxicity in HepG2 cell line, in words (HepG2 cells) | IC50 (HepG2 cells) | SPTDI CYP3A4 kobs (CYP3A4; single high dose of 10 μM) | SPTDI kobs at CYP3A4 (CYP3A4; tested at 10 μM) | risk of time dependent inhibition (TDI) at CYP3A4, in words (CYP3A4; listed as Compound 12) | risk of time dependent inhibition (TDI) at CYP3A4, in words (CYP3A4; listed as Compound 11) | risk of time dependent inhibition (TDI) at CYP3A4, in words (CYP3A4; listed as Compound 8) |
| --- | --- | --- | --- | --- | --- | --- | --- | --- | --- | --- | --- | --- |
| Cc1cc(C)cc([C@@H]2CCCN2Cc2ccc(Oc3ccc(C(N)=O)cc3F)cc2)c1 [Comparator E, reference compound] | potential risk of CYP3A4 TDI | 0.0113^2 min−1 | 0.011 min⁻¹ | a risk for reversible DDI at CYP450 isozymes 2C8, 2C9, 3A4, and/or 2D6 | yes (2C8) | cytotoxicity at lower concentrations | 43 µM | – | – | – | – | – |
| NC(=O)c1ccc(Oc2ccc(CN3CCCC3c3cccnc3)cc2)c(Cl)c1 (stereo not shown) [Comparator C] | – | – | – | a risk for reversible DDI at CYP450 isozymes 2C8, 2C9, 3A4, and/or 2D6 | yes (2C8, 2C9, | – | 72 µM | – | – | – | – | – |
| NC(=O)c1ccc(Oc2ccc(CN3CCC[C@H]3c3cccc(F)c3)cc2)c(F)c1 [Comparator F] | potential risk of CYP3A4 TDI | – | – | – | no | cytotoxicity at lower concentrations | 56 µM | 0.0133 min⁻¹ | 0.0133 min⁻¹ | – | – | – |
| COc1nn(C)cc1[C@@H]1CCCN1Cc1ccc(Oc2ccc(C(N)=O)cc2)cc1 (single isomer, unassigned) [Example 12] | low to no significant risk for TDI at CYP3A4 | – | – | no significant risk of reversible inhibition | no | little to no cytotoxicity | > 300 µM | 0.0042 min⁻¹ | – | not time dependent inactivators of CYP3A4 | – | – |
| NC(=O)c1ccc(Oc2ccc(CN3CCCCC3c3ccccc3)cc2)nc1 (stereo not shown) [Comparator B] | – | – | – | – | no | – | 112 µM | 0.0041 min⁻¹ | – | – | – | – |
| Cc1nn(C)cc1[C@@H]1CCCN1Cc1ccc(Oc2ccc(C(N)=O)cc2)cc1 [Example 11, 4-(4-{[(2S)-2-(1,3-Dimethyl-1H-pyrazol-4-yl)pyrrolidin-1-yl]methyl}phenoxy)benzamide] | low to no significant risk for TDI at CYP3A4 | – | – | no significant risk of reversible inhibition | no | little to no cytotoxicity | 267 µM | 0.0055 min⁻¹ | – | – | not time dependent inactivators of CYP3A4 | – |
| NC(=O)c1ccc(Oc2ccc(CN3CCCC3c3ccccc3)cc2)nc1 (stereo not shown) [Comparator D] | – | – | – | a risk for reversible DDI at CYP450 isozymes 2C8, 2C9, 3A4, and/or 2D6 | yes (2D6) | – | 69 µM | 0.0065 min⁻¹ | – | – | – | – |
| NC(=O)c1ccc(Oc2ccc(CN3CCC(c4ccccc4)C3)cc2)nc1 (stereo not shown) [Comparator A, reference compound] | – | – | – | – | no | – | 174 µM | – | – | – | – | – |
| COc1nn(C)cc1C1CCCN1Cc1ccc(Oc2ccc(C(N)=O)cc2F)cc1 (single isomer, unassigned; (-)) [Example 8, (−)-3-Fluoro-4-(4-{[2-(3-methoxy-1-methyl-1H-pyrazol-4-yl)pyrrolidin-1-yl]methyl}phenoxy)benzamide] | low to no significant risk for TDI at CYP3A4 | – | – | no significant risk of reversible inhibition | no | little to no cytotoxicity | > 300 µM | 0.0044 min⁻¹ | – | – | – | not time dependent inactivators of CYP3A4 |

— patent publication US10316021B2, “Heteroarylphenoxy benzamide kappa opioid ligands” (Pfizer Inc., priority 2016, dated 2019)
